Measurements as given in US11702404B2, “GLP-1R modulating compounds” (priority 2019, dated 2023).
Like-named read-outs stand apart in the source and are kept apart here.

Tests used:
GLP-1R = GLP-1R (Homo sapiens, UniProt P43220); assay: GLP-1R activation: cAMP increase in CHO cells stably expressing GLP-1R; format: cell-based
[1] = Microsomal stability, human liver microsomes (predicted hepatic clearance); details: predicted from in vitro microsomal stability data
[2] = cAMP increase, CHO cells stably expressing GLP-1R, 10 point dose response, 30 minutes incubation, read-out: EC50

Sequence of GLP-1R (P43220 24-463): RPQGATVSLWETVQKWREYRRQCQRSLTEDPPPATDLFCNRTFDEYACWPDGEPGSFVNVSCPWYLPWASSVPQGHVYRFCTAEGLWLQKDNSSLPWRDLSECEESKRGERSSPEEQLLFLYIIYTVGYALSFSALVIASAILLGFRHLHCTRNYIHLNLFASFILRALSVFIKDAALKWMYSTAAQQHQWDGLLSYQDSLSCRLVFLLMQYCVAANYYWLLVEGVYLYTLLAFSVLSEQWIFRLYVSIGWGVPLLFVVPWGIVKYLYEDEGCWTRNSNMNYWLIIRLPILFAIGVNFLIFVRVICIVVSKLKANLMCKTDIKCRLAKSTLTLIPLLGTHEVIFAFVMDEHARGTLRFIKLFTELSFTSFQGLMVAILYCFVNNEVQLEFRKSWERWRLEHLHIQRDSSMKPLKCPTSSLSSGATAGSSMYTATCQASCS

Row | Compound | EC50 (GLP-1R; [2]) [nM] | Predicted Hepatic Clearance (Pred. Cl.) [1] [mL/min/kg] | EC50 (GLP-1R; EC50 (nM)) [nM] | EC50 (GLP-1R; read-out: EC50) [nM]
1 | COCCn1c(Cc2cc(F)c(-c3cccc(OCc4ccc(C#N)cc4F)n3)cc2F)nc2ccc(-c3nn[nH]n3)cc21 [Example 104, 4-[[6-[2,5-difluoro-4-[[1-(2-methoxyethyl)-6-(2H-tetrazol-5-yl)benzimidazol-2-yl]methyl]phenyl]-2-pyridyl]oxymethyl]-3-fluoro-benzonitrile] | 21.4 | 12.7 |  | 
2 | N#Cc1ccc(COc2cccc(-c3ccc(Cc4nc5ccc(C(=O)O)cc5n4CC4(C#N)CC4)c(F)c3)n2)c(F)c1 [Example 13, 2-(4-(6-((4-cyano-2-fluorobenzyl)oxy)pyridin-2-yl)-2-fluorobenzyl)-1-((1-cyanocyclopropyl)methyl)-1H-benzo[d]imidazole-6-carboxylic acid] | 2.7 | 4.17 |  | 
3 | N#Cc1ccc(COc2cccc(-c3ccc(Cc4nc5ccc(C(=O)O)cc5n4CC4CCS4(=O)=O)c(F)c3)n2)c(F)c1 (single isomer, unassigned) [Example 69, 2-(4-(6-((4-cyano-2-fluorobenzyl)oxy)pyridin-2-yl)-2-fluorobenzyl)-1-((1,1-dioxidothietan-2-yl)methyl)-1H-benzo[d]imidazole-6-carboxylic acid] | 12 | <1.83 |  | 
4 | COCCn1c(Cc2cc(F)c(-c3nccc(OCc4ccc(C#N)cc4F)n3)cc2F)nc2ccc(C(=O)O)cc21 [Example 159, 2-(4-(4-((4-cyano-2-fluorobenzyl)oxy)pyrimidin-2-yl)-2,5-difluorobenzyl)-1-(2-methoxyethyl)-1H-benzo[d]imidazole-6-carboxylic acid] |  | 6 | 7.78 | 
5 | COCCn1c(Cc2cc(F)c(-c3cccc(OCc4ccc(OC)nc4)n3)cc2F)nc2ccc(C(=O)O)cc21 [Example 866, 2-[[2,5-difluoro-4-[6-[(6-methoxy-3-pyridyl)methoxy]-2-pyridyl]phenyl]methyl]-3-(2-methoxyethyl)benzimidazole-5-carboxylic acid] | 16.1 | 8.17 |  | 
6 | COCCn1c(Cc2ccc(-c3cccc(OCc4ccc(C#N)cc4F)n3)cc2NS(C)(=O)=O)nc2ccc(C(=O)O)cc21 [Example 66, 2-(4-(6-((4-Cyano-2-fluorobenzyl)oxy)pyridin-2-yl)-2-(methylsulfonamido)benzyl)-1-(2-methoxyethyl)-1H-benzo[d]imidazole-6-carboxylic acid] | 1030 | 12.3 |  | 
7 | COC1(Cn2c(Cc3cc(F)c(-c4cccc(OCc5ccc(C#N)cc5F)n4)cc3F)nc3ccc(C(=O)O)cc32)COC1 [Example 636] | 1.27 | 6.5 |  | 
8 | COCCn1c(Cc2ccc(-c3cccc(OCc4ccccc4F)n3)cc2F)nc2ccc(C(=O)O)cc21 [Example 514, 2-(2-fluoro-4-(6-((2-fluorobenzyl)oxy)pyridin-2-yl)benzyl)-1-(2-methoxyethyl)-1H-benzo[d]imidazole-6-carboxylic acid] | 60.8 | 15.2 |  | 
9 | COCCn1c(Cc2cc(F)c(-c3ccc(F)c(OCc4ccc(C(F)F)cc4F)n3)cc2F)nc2c(F)cc(C(=O)O)cc21 [Example 762] | 0.9 | 1.83 |  | 
10 | COCCn1c(Cc2cc(F)c(-c3cccc(OCc4ccc(C)cn4)n3)cc2F)nc2ccc(C(=O)O)cc21 [Example 803] | 5.95 | 13.3 |  | 
11 | COCCn1c(Cc2ccc(-c3cccc(OCc4ccc(C#N)cc4F)n3)c3ccccc23)nc2ccc(C(=O)O)cc21 [Example 35, 2-((4-(6-((4-cyano-2-fluorobenzyl)oxy)pyridin-2-yl)naphthalen-1-yl)methyl)-1-(2-methoxyethyl)-1H-benzo[d]imidazole-carboxylic acid] | 1000 | 5.17 |  | 
12 | N#Cc1ccc(COc2nccc(-c3ccc(Cc4nc5c(F)cc(C(=O)O)cc5n4C[C@@H]4CCO4)c(F)c3)n2)c(F)c1 [Example 406, (S)-2-(4-(2-((4-cyano-2-fluorobenzyl)oxy)pyrimidin-4-yl)-2-fluorobenzyl)-4-fluoro-1-(oxetan-2-ylmethyl)-1H-benzo[d]imidazole-6-carboxylic acid] | 0.18 | 3.83 |  | 
13 | COCCn1c(Cc2ccc(-c3cccc(O[C@H](C)c4ccccc4)n3)cc2F)nc2ccc(C(=O)O)cc21 [Example 515, (R)-2-(2-fluoro-4-(6-(1-phenylethoxy)pyridin-2-yl)benzyl)-1-(2-methoxyethyl)-1H-benzo[d]imidazole-6-carboxylic acid] | 876 | 7.5 |  | 
14 | CC(C)(O)[C@H](F)Cn1c(Cc2ccc(-c3cccc(OCc4ccc(C#N)cc4F)n3)cc2F)nc2ccc(C(=O)O)cc21 [Example 278, (R)-2-(4-(6-((4-cyano-2-fluorobenzyl)oxy)pyridin-2-yl)-2-fluorobenzyl)-1-(2-fluoro-3-hydroxy-3-methylbutyl)-1H-benzo[d]imidazole-6-carboxylic acid] | 1640 | 3 |  | 
15 | N#Cc1ccc(COc2cccc(-c3ccc(Cc4nc5ccc(C(=O)O)cc5n4Cc4ccccc4)c(F)c3)n2)c(F)c1 [Example 531, 1-benzyl-2-(4-(6-((4-cyano-2-fluorobenzyl)oxy)pyridin-2-yl)-2-fluorobenzyl)-1H-benzo[d]imidazole-6-carboxylic acid] | 12.8 | 2.25 |  | 
16 | COCCn1c(Cc2ccc(-c3cccc(OCc4ccc(C#N)cc4F)n3)cc2-c2cnn(C(F)F)c2)nc2ccc(C(=O)O)cc21 [Example 190, 2-(4-(6-((4-cyano-2-fluorobenzyl)oxy)pyridin-2-yl)-2-(1-(difluoromethyl)-1H-pyrazol-4-yl)benzyl)-1-(2-methoxyethyl)-1H-benzo[d]imidazole-6-carboxylic acid] | 252 | 6.83 |  | 
17 | COC[C@@H](CF)n1c(Cc2cc(F)c(-c3cccc(OCc4ccc(C#N)cc4F)n3)cc2F)nc2ccc(C(=O)O)cc21 [Example 726] | 7.26 | 5.5 |  | 
18 | COCCn1c(Cc2cc(F)c(-c3ccnc(OCc4ccc(C#N)cc4F)n3)cc2F)nc2c(F)cc(C(=O)O)cc21 [Example 280, 2-(4-(2-((4-cyano-2-fluorobenzyl)oxy)pyrimidin-4-yl)-2,5-difluorobenzyl)-4-fluoro-1-(2-methoxyethyl)-1H-benzo[d]imidazole-6-carboxylic acid] | 0.62 | 4 |  | 
19 | COCCn1c(Cc2ccc(-n3ccc(OCc4ccccc4)n3)cc2F)nc2ccc(C(=O)O)cc21 [Example 89, 2-(4-(3-(benzyloxy)-1H-pyrazol-1-yl)-2-fluorobenzyl)-1-(2-methoxyethyl)-1H-benzo[d]imidazole-6-carboxylic acid] | 1650 | 8.83 |  | 
20 | CC(=O)N1CC(F)(F)C[C@@H]1Cn1c(Cc2cc(F)c(-c3cccc(OCc4ccc(C#N)cc4F)n3)cc2F)nc2ccc(C(=O)O)cc21 [Example 539, (R)-1-((1-acetyl-4,4-difluoropyrrolidin-2-yl)methyl)-2-(4-(6-((4-cyano-2-fluorobenzyl)oxy)pyridin-2-yl)-2,5-difluorobenzyl)-1H-benzo[d]imidazole-6-carboxylic acid] |  | 6.33 |  | 0.7
21 | N#Cc1ccc(COc2cccc(-c3cc(F)c(Cc4nc5ccc(C(=O)O)cc5n4CC4CC5CCN4CC5)cc3F)n2)c(F)c1 (stereo not drawn) [Example 740] |  | 2.17 |  | 1160
22 | COCCn1c(Cc2cc(F)c(-c3cccc(OCc4ccc(C)nc4F)n3)cc2F)nc2ccc(C(=O)O)cc21 [Example 822] | 3.49 | 1.83 |  | 
23 | COC(=O)N1CCC[C@@H]1Cn1c(Cc2cc(F)c(-c3cccc(OCc4ccc(C#N)cc4F)n3)cc2F)nc2ccc(C(=O)O)cc21 [Example 589, (R)-2-(4-(6-((4-cyano-2-fluorobenzyl)oxy)pyridin-2-yl)-2,5-difluorobenzyl)-1-((1-(methoxycarbonyl)pyrrolidin-2-yl)methyl)-1H-benzo[d]imidazole-6-carboxylic acid] |  | 8.17 |  | 5.46
24 | N#Cc1ccc(COc2cccc(-c3ccc(Cc4nc5ccc(C(=O)O)cc5n4CC4CCS4(=O)=O)c(F)c3)n2)c(F)c1 (single isomer, unassigned) [Example 70, 2-(4-(6-((4-cyano-2-fluorobenzyl)oxy)pyridin-2-yl)-2-fluorobenzyl)-1-((1,1-dioxidothietan-2-yl)methyl)-1H-benzo[d]imidazole-6-carboxylic acid] | 64 | 2.17 |  | 
25 | COCCn1c(Cc2ccc(-c3cccc(OCc4ccc(C#N)cc4F)n3)nc2)nc2ccc(C(=O)O)cc21 [Example 43, 2-{[6-[6-[(4-cyano-2-fluoro-phenyl)methoxy]-2-pyridyl]-3-pyridyl]methyl}-3-(2-methoxyethyl)benzimidazole-5-carboxylic acid] | 163 | 5.83 |  | 
26 | COCCn1c(Cc2ccc(-c3cccc(OCc4ccc(C5(F)COC5)cc4)n3)cc2F)nc2ccc(C(=O)O)cc21 [Example 460, 2-(2-fluoro-4-(6-((4-(3-fluorooxetan-3-yl)benzyl)oxy)pyridin-2-yl)benzyl)-1-(2-methoxyethyl)-1H-benzo[d]imidazole-6-carboxylic acid] | 15.7 | 12.5 |  | 
27 | N#Cc1ccc(COc2cccc(-c3cc(F)c(Cc4nc5ccc(C(=O)O)cc5n4[C@H]4CCCOC4)cc3F)n2)c(F)c1 [Example 545, 2-(4-(6-((4-cyano-2-fluorobenzyl)oxy)pyridin-2-yl)-2,5-difluorobenzyl)-1-(tetrahydro-2H-pyran-3-yl)-1H-benzo[d]imidazole-carboxylic acid] | 6.9 | 6.67 |  | 
